Test results: the NIST ThermoML archive (doi:10.1016/j.fluid.2016.10.026)

Conditions: for mass density / kinematic viscosity / speed of sound / vapor or sublimation pressure: Liquid; for mass density: Vibrating tube method; for surface tension liquid-gas: Drop volume; for kinematic viscosity: Capillary tube (Ostwald / Ubbelohde) method; for speed of sound: Frequency=3 MHz, Sing-around technique in a fixed-path interferometer; for vapor or sublimation pressure: Ebulliometric method (Recirculating still)

CC(=O)c1cccs1 [2-acetylthiophene]
Conditions | kinematic viscosity [m2/s] | mass density [kg/m3] | speed of sound [m/s]
313.15 K, 25000 kPa | – | 1167.08 | –
313.15 K, 30000 kPa | – | 1169.85 | –
313.15 K, 35000 kPa | – | 1172.56 | –
313.15 K, 40000 kPa | – | 1175.19 | –
313.15 K, 45000 kPa | – | 1177.74 | –
313.15 K, 50000 kPa | – | 1180.24 | –
313.15 K, 55000 kPa | – | 1182.67 | –
313.15 K, 60000 kPa | – | 1185.04 | –
313.15 K, 65000 kPa | – | 1187.36 | –
315.65 K, 101 kPa | 1.58e-06 | 1149.57 | 1409
318.15 K, 100 kPa | – | 1147.15 | –
318.15 K, 101 kPa | 1.51e-06 | 1147.18 | 1400.3
318.15 K, 2000 kPa | – | 1148.56 | –
318.15 K, 5000 kPa | – | 1150.49 | –
318.15 K, 7000 kPa | – | 1151.77 | –
318.15 K, 10000 kPa | – | 1153.65 | –
318.15 K, 15000 kPa | – | 1156.74 | –
318.15 K, 20000 kPa | – | 1159.72 | –
318.15 K, 25000 kPa | – | 1162.64 | –
318.15 K, 30000 kPa | – | 1165.47 | –
318.15 K, 35000 kPa | – | 1168.21 | –
318.15 K, 40000 kPa | – | 1170.9 | –
318.15 K, 45000 kPa | – | 1173.5 | –
318.15 K, 50000 kPa | – | 1176.04 | –
318.15 K, 55000 kPa | – | 1178.53 | –
318.15 K, 60000 kPa | – | 1180.93 | –
318.15 K, 65000 kPa | – | 1183.29 | –
320.65 K, 101 kPa | 1.45e-06 | 1144.79 | 1391.8
323.15 K, 100 kPa | – | 1142.34 | –
323.15 K, 101 kPa | 1.39e-06 | 1142.39 | 1383.4
323.15 K, 2000 kPa | – | 1143.79 | –
323.15 K, 5000 kPa | – | 1145.78 | –
323.15 K, 7000 kPa | – | 1147.09 | –
323.15 K, 10000 kPa | – | 1149.02 | –
323.15 K, 15000 kPa | – | 1152.17 | –
323.15 K, 20000 kPa | – | 1155.23 | –
323.15 K, 25000 kPa | – | 1158.22 | –
323.15 K, 30000 kPa | – | 1161.08 | –
323.15 K, 35000 kPa | – | 1163.89 | –
323.15 K, 40000 kPa | – | 1166.63 | –
323.15 K, 45000 kPa | – | 1169.28 | –
323.15 K, 50000 kPa | – | 1171.88 | –
323.15 K, 55000 kPa | – | 1174.4 | –
323.15 K, 60000 kPa | – | 1176.86 | –
323.15 K, 65000 kPa | – | 1179.25 | –
325.65 K, 101 kPa | 1.34e-06 | 1140 | 1375
328.15 K, 100 kPa | – | 1137.56 | –
328.15 K, 101 kPa | 1.29e-06 | 1137.61 | 1366.5
328.15 K, 2000 kPa | – | 1139.02 | –
328.15 K, 5000 kPa | – | 1141.06 | –
328.15 K, 7000 kPa | – | 1142.39 | –
328.15 K, 10000 kPa | – | 1144.38 | –
328.15 K, 15000 kPa | – | 1147.6 | –
328.15 K, 20000 kPa | – | 1150.78 | –
328.15 K, 25000 kPa | – | 1153.79 | –
328.15 K, 30000 kPa | – | 1156.77 | –
328.15 K, 35000 kPa | – | 1159.56 | –
328.15 K, 40000 kPa | – | 1162.34 | –
328.15 K, 45000 kPa | – | 1165.07 | –
328.15 K, 50000 kPa | – | 1167.69 | –
328.15 K, 55000 kPa | – | 1170.28 | –
328.15 K, 60000 kPa | – | 1172.79 | –
328.15 K, 65000 kPa | – | 1175.21 | –
330.65 K, 101 kPa | 1.24e-06 | 1135.21 | 1358.1
333.15 K, 100 kPa | – | 1132.76 | –
333.15 K, 101 kPa | 1.2e-06 | 1132.81 | 1349.5
333.15 K, 2000 kPa | – | 1134.24 | –
333.15 K, 5000 kPa | – | 1136.33 | –
333.15 K, 7000 kPa | – | 1137.7 | –
333.15 K, 10000 kPa | – | 1139.72 | –
333.15 K, 15000 kPa | – | 1143.11 | –
333.15 K, 20000 kPa | – | 1146.25 | –
333.15 K, 25000 kPa | – | 1149.39 | –
333.15 K, 30000 kPa | – | 1152.35 | –
333.15 K, 35000 kPa | – | 1155.23 | –
333.15 K, 40000 kPa | – | 1158.08 | –
333.15 K, 45000 kPa | – | 1160.83 | –
333.15 K, 50000 kPa | – | 1163.52 | –
333.15 K, 55000 kPa | – | 1166.14 | –
333.15 K, 60000 kPa | – | 1168.68 | –
333.15 K, 65000 kPa | – | 1171.17 | –
335.65 K, 101 kPa | 1.16e-06 | 1130.41 | 1340.8
338.15 K, 100 kPa | – | 1127.97 | –
338.15 K, 101 kPa | 1.12e-06 | 1128.01 | 1332.2
338.15 K, 2000 kPa | – | 1129.47 | –
338.15 K, 5000 kPa | – | 1131.61 | –
338.15 K, 7000 kPa | – | 1133.01 | –
338.15 K, 10000 kPa | – | 1135.08 | –
338.15 K, 15000 kPa | – | 1138.55 | –
338.15 K, 20000 kPa | – | 1141.78 | –
338.15 K, 25000 kPa | – | 1144.86 | –
338.15 K, 30000 kPa | – | 1147.94 | –
338.15 K, 35000 kPa | – | 1150.94 | –
338.15 K, 40000 kPa | – | 1153.82 | –
338.15 K, 45000 kPa | – | 1156.64 | –
338.15 K, 50000 kPa | – | 1159.38 | –
338.15 K, 55000 kPa | – | 1162.04 | –
338.15 K, 60000 kPa | – | 1164.64 | –
338.15 K, 65000 kPa | – | 1167.11 | –

Conditions | surface tension liquid-gas [mN/m] | vapor or sublimation pressure [kPa]
315.65 K | 41.14 | –
318.15 K | 40.87 | –
320.65 K | 40.58 | –
323.15 K | 40.27 | –
325.65 K | 39.97 | –
328.15 K | 39.7 | –
330.65 K | 39.43 | –
333.15 K | 39.12 | –
335.65 K | 38.88 | –
336.16 K | – | 0.305
338.15 K | 38.58 | –
340.77 K | – | 0.4
342.94 K | – | 0.45
345.74 K | – | 0.54
350.41 K | – | 0.69
356.58 K | – | 0.955
362.84 K | – | 1.295
365.84 K | – | 1.545
371.37 K | – | 2.02
376.26 K | – | 2.52
383.49 K | – | 3.53
389.55 K | – | 4.545
394.16 K | – | 5.5
400.53 K | – | 7.065
407.19 K | – | 9.015
412.74 K | – | 11.05
417.12 K | – | 13.02
421.69 K | – | 15.2
423.25 K | – | 15.99
426.08 K | – | 17.63
429.93 K | – | 20.05
433.16 K | – | 22.2
435.59 K | – | 24.04
438.37 K | – | 26.19
440.66 K | – | 28.12
442.49 K | – | 29.8
445.02 K | – | 32.16
